Results reported in publication PMC8348200, “Selective Antifungal Activity and Fungal Biofilm Inhibition of Tryptophan Center Symmetrical Short Peptide” (International Journal of Molecular Sciences, 2021).
Values after ≈ are worked out from the molar mass of the structure shown. Like-named read-outs stand apart in the source and are kept apart here.

Key:
E. coli 25922 = experiment: microbe, parasite or virus in culture; type: cell-based, Escherichia coli; settings: Escherichia coli, 25922; MHB, 37 °C 24 h, peptides 0.5-128 μM; lowest concentration inhibiting 95% of growth; three independent experiments; read-out: MICs, E. coli 25922
Experimental: (§1) The peptide antimicrobial activity was determined according to the Clinical and Laboratory Standards Institute method, with modifications. Bacteria concentration was measured by ultraviolet spectrophotometer, and fungi concentration was confirmed by McMillan’s turbidimetric method, which compared the fungi solution with the standard McFarland tube in front of the horizontal line on the paper with the naked eye. Because the light has different refract in different liquids. The standard solution is composed of sulfuric acid and barium chloride, which is equivalent to 1*10^8 CFU fungi. After cultivation, the growth of fungi and bacteria was measured by TECAN automatic enzyme label instrument. Briefly, bacterial cells were cultured in MHB until logarithmic phase, yeast colonies cultured in Yeast Peptone Dextrose Agar (YPDA) were picked and diluted in RPMI 1640 growth medium buffered with morpholine propane sulfonic acid (MOPS), and then 50 μL of bacterial or fungi cell solution (0.5–1 × 10^4 CFU/mL) was added to each well of sterile 96-well plates. Each well contained 50 μL of AMPs dissolved in BSA; the final concentrations of the peptides ranged from 0.5 to 128 μM. The lowest concentration of peptide with no microbial growth being observed were measured after incubation at 37 °C for 24 h for bacteria or at 28 °C for 48 h for fungi. Broth with microbial cells and un-inoculated broth were used as positive control and negative controls, respectively.

E. coli UB1005 = experiment: microbe, parasite or virus in culture; type: cell-based, Escherichia coli; settings: Escherichia coli, UB1005; MHB, 37 °C 24 h, peptides 0.5-128 μM; lowest concentration inhibiting 95% of growth; three independent experiments; read-out: MICs, E. coli UB1005
Experimental: as §1

S. thermophilus YM-C = experiment: microbe, parasite or virus in culture; type: cell-based, Streptococcus thermophiles; settings: 37 °C 24 h, peptides 0.5-128 μM, lowest concentration inhibiting 95% of growth, three independent experiments, read-out: MICs, S. thermophilus YM-C
Experimental: as §1

[1] = system: Fluconazole-resistant C. albicans 56214; experiment: microbe, parasite or virus in culture; settings: for MIC: Candida albicans, 48 h, read-out: MICs, C. albicans 56214
Experimental: as §1, with “Bacteria concentration was measured by ultraviolet spectrophotometer, and fungi concentration was confirmed by McMillan’s turbidimetric method, which compared the fungi solution with the standard McFarland tube in front of the horizontal line on the paper with the naked eye.” left out, “The lowest concentration of peptide with no microbial growth being observed were measured after incubation at 37 °C for 24 h for bacteria or at 28 °C for 48 h for fungi.” left out

C. albicans cgmcc 2.2086 [2] = experiment: Resistance development by sequential passaging at sub-MIC; type: cell-based, Candida albicans; settings: 20-passage repeating treatment at sub-lethal concentration
Experimental: Resistance development of C. albicans cgmcc 2.2086 against antifungals was explored using a sequential passaging method, described in our previous study [22]. Briefly, MIC testing was first conducted for P19, fluconazole and amphotericin B. After a 24 h incubation, fungal cells growing in a well with a half-MIC level were harvested and diluted to 0.5–1 × 10^4 CFU/mL using RPMI 1640 growth medium buffered with morpholine propane sulfonic acid (MOPS). The inoculum was subjected to subsequent passage MIC testing, and the process was repeated for 30 days. The fold change in MIC was plotted against the number of passages.

C. albicans cgmcc 2.2086 [3] = experiment: Cytoplasmic membrane depolarization assay (DiSC3-5); type: cell-based, Candida albicans; settings: agents at their MICs, 1 h; 0.4 μM DiSC3-5
Experimental: To analyze membrane disturbances due to P19, melittin, fluconazole or amphotericin B-treated, cells (1 × 10^4 cells/mL) of C. albicans cgmcc 2.2086 were incubated with antimicrobial agents at their respective MICs for 1 h at room temperature; the cells were then harvested by centrifugation and resuspended in 1 mL PBS (pH 7.4). […] Changes in fluorescence were measured from 0 to 800 s with a F-4500 fluorescence spectrophotometer (Hitachi, Japan) at an excitation wavelength of 622 nm and an emission wavelength of 670 nm.

C. albicans cgmcc 2.2086 [4] = experiment: Propidium iodide influx, flow cytometry; type: cell-based, Candida albicans; settings: 1× MIC, 1 h at 28 °C; 10 μg/mL PI
Experimental: Cell membrane permeabilization after treatment with P19, melittin, fluconazole or amphotericin B were also detected via the propidium iodide influx assay. In brief, C. albicans cgmcc 2.2086 cells (1 × 10^4 cells/mL) were treated with antifungal agents for 1 h at 28 °C, then washed, harvested by centrifugation and resuspended in PBS. The cells were treated with 10 μg/mL propidium iodide and incubated for 30 min at room temperature. The uptake of propidium iodide into these cells was analyzed with a FACS flow cytometer (Becton–Dickinson, San Jose, CA) with a laser excitation wavelength of 488 nm. The flow cytometry results can be interpreted as follows. Region Q1 was identified as a living cell region; it represents cells treated with PBS. Q2 region represents the dead cell region. Ignored the surrounding adherent scattered points, the most concentrated scattered points represented the largest cell density. The areas where cells were concentrated represent the state of cells as live or die.

## C[C@@H]1[C@H](O)[C@@H](C)/C=C/C=C/C=C/C=C/C=C/C=C/C=C/[C@H](O[C@@H]2O[C@H](C)[C@@H](O)[C@H](N)[C@@H]2O)C[C@@H]2O[C@](O)(C[C@@H](O)C[C@@H](O)[C@H](O)CC[C@@H](O)C[C@@H](O)CC(=O)O[C@H]1C)C[C@H](O)[C@H]2C(=O)O [Amphotericin B, reference compound]
E. coli 25922
  MIC: > 128 µM
E. coli UB1005
  MIC: > 128 µM
S. thermophilus YM-C; Streptococcus thermophilus
  MIC: > 128 µM
[1]
  MIC: 1 µM (≈ 0.924 µg/mL)
C. albicans cgmcc 2.2086 [2]
  increase in MIC value compared with the first passage: 1024 fold
C. albicans cgmcc 2.2086 [3]
  membrane depolarization (DiSC3-5 fluorescence intensity): minor change of membrane depolarization

## CC[C@H](C)[C@H](NC(=O)CN)C(=O)NCC(=O)N[C@@H](C)C(=O)N[C@H](C(=O)N[C@@H](CC(C)C)C(=O)N[C@@H](CCCCN)C(=O)N[C@H](C(=O)N[C@@H](CC(C)C)C(=O)N[C@H](C(=O)N[C@H](C(=O)NCC(=O)N[C@@H](CC(C)C)C(=O)N1CCC[C@H]1C(=O)N[C@@H](C)C(=O)N[C@@H](CC(C)C)C(=O)N[C@H](C(=O)N[C@@H](CO)C(=O)N[C@@H](Cc1c[nH]c2ccccc12)C(=O)N[C@H](C(=O)N[C@@H](CCCCN)C(=O)N[C@@H](CCCNC(=N)N)C(=O)N[C@@H](CCCCN)C(=O)N[C@@H](CCCNC(=N)N)C(=O)N[C@@H](CCC(N)=O)C(=O)N[C@@H](CCC(N)=O)C(N)=O)[C@@H](C)CC)[C@@H](C)CC)[C@@H](C)O)[C@@H](C)O)C(C)C)C(C)C [Melittin, reference compound]
S. thermophilus YM-C
  MIC: >128 µM
[1]; fluconazole-resistant strain, RPMI 1640 buffered with MOPS, 28 °C 48 h, 0.5-128 μM
  MICs, C. albicans 56214: 2 µM
C. albicans cgmcc 2.2086 [4]
  increase of PI fluorescent signal: more than 90%

## OC(Cn1cncn1)(Cn1cncn1)c1ccc(F)cc1F [Fluconazole, reference compound]
E. coli 25922
  MIC: > 128 µM
E. coli UB1005
  MIC: > 128 µM
S. thermophilus YM-C; Streptococcus thermophilus
  MIC: > 128 µM
[1]
  MIC: > 128 µM
C. albicans cgmcc 2.2086 [2]
  increase in MIC value compared with the first passage: 1024 fold
C. albicans cgmcc 2.2086 [3]
  membrane depolarization (DiSC3-5 fluorescence intensity): minor change of membrane depolarization
